Columns and labels:
[1] = test system: MDA-MB-231; test: AG-205 viability assay in MDA-MB-231 cells; type: cell-based; conditions: MDA-MB-231, breast, serum-starved, EGFR wild-type
Method: (A) Pgrmc1 (SEQ ID NO: 7) shares homology with AtMAPR2 (SEQ ID NO: 8) (underlined residues), which was the target for a screen for small molecule ligands. The putative heme-binding Tyr106 and Tyr112 are indicated with black boxes. (B) The molecular structure of AG-205 includes multiple aromatic components. (C) Spectroscopic scan of Pgrmc1 with vehicle control compared with vehicle plus 50 µM AG-205. The decrease in relative absorbance at 400 nm is consistent with an AG-205-induced change in the spectral properties of Pgrmc1-heme. The scan is representative of four separate scans using different Pgrmc1 protein preparations. […] Percent viability was determined by cell counting, and “% viability” refers to the cell number relative to the untreated control.
(§1) Proliferation, anchorage-independent growth and migration assays. […] Following the harvest of the final time point, the cells from each time point were counted using a Bright-line hemocytometer (Hausser Scientific).
(§2) MTT viability assays were performed as described previously. […] The cells were then incubated with 0.5 mg/ml of 3-[4,5-dimethylthiazol-2-y]-2,5-diphenyltetrazolium bromide for 1.5 hours, at which time the media was removed, the precipitated crystals were dissolved in dimethyl sulfoxide, and the absorbance at 590 nm was measured using a Bio-Tek μQuant spectrophotometer.

[2] = test system: H1650; test: AG-205 viability assay in H1650 cells; type: cell-based
Method: (§3) Tissue culture. MDA-MB-468 cells were a kind gift from Dr. Rina Plattner of the University of Kentucky and were maintained in medium consisting of Dulbecco's Modified Eagle Medium containing 10% serum supreme (Fisher) and antibiotics. Cells were grown at 37° C. in 5% CO2 in air. A549 and HCC827 lung cancer cells, as well as SK-Br-3 breast cancer cells were obtained from the ATCC (American Type Culture Collection) and were grown under the same conditions. The H1650 lung cancer cell line was a kind gift from Dr. Heinz Kohler of the University of Kentucky. The Pgrmc1 ligand AG-205 was purchased from Timtec, Inc. The EGFR inhibitor AG1478 was from Biomol, Inc. and was used at a concentration range of 0.8-40 μM.
as §1, with “assays. For growth curves, cells were plated in 24 well dishes and grown in 10% serum-containing medium.” for “assays.”
as §2

[3] = test system: EGFR; test: Western blot of EGFR levels in A549 cells; type: cell-based, human
Method: Panel A is a diagram indicating the positions of the siRNA molecules targeting Pgrmc1. Exons 1, 2 and 3 are indicated by “ex”. MDA-MB-468 cells were transfected with a control siRNA (siCON, lanes 1 and 3) or two separate siRNAs targeting Pgrmc1 (siPGR and siPGR2, lanes 2 and 4, respectively). In panels B-E and H-L, protein levels were analyzed by western blot for EGFR (B), phospho-tyrosine (C), Pgrmc1 (D) and ku70 (E), as a control for protein loading. Panels F—H show western blot analyses for (F) IGF-1R, (G) c-Kit and (H) tfR. In panels I and J, transcript levels were analyzed by reverse transcriptase-PCR for EGFR (I) and Pgrmc1 (J). The top band indicates the gene of interest, while actin primers were included in the same reaction as a control for cDNA loading. […] In panels K-L, MDA-MB-468 cells were treated with increasing doses of the Pgrmc1 ligand AG-205. Protein expression was analyzed by western blot for EGFR (K) and ku70 (L). Cells were treated with 0 (lanes 1), 2 (lanes 2), 10 (lanes 3) or 50 (lanes 4) μM AG-205 for 24 hours in serum-free medium. In panels M-N, A549 cells were treated with the same doses and analyzed for EGFR (M) and ku70 (N). […] Expression analyses were repeated at least in duplicate throughout.
Immunological techniques. […]

[4] = test system: NIH-3T3 cells; test: Growth inhibition of NIH-3T3 cells; type: cell-based; conditions: wild-type EGFR
[5] = test system: A431; test: AG-205 viability assay in A431 cells; type: cell-based; conditions: A431, epitheloid, serum-starved, EGFR wild-type
[6] = test system: SK-Br-3 cells; test: Growth inhibition of SK-Br-3 cells; type: cell-based; conditions: modest EGFR, extremely high HER2/neu
Method: as §3

[7] = test system: cancer cell lines from lung, breast, colon and prostate tissues; test: Toxicity to multiple cancer cell lines; type: cell-based; conditions: most active when serum is absent
[8] = test system: polyADP ribose polymerase (PARP) or caspase 3; test: Cleavage of PARP or caspase 3 in AG-205-treated cancer cells; type: cell-based, human; conditions: AG-205-treated cells losing viability
Method: (§4) Immunological techniques. Cells were extracted in RIPA buffer (50 mM Tris, pH 8.0, 1% Nonidet P-40, 150 mM NaCl, 0.5% sodium deoxycholate, 0.1% sodium dodecyl sulfate, 1 mM phenylmethylsulfonyl fluoride, 10 μg/ml of aprotinin, leupeptin and pepstatin) for standard western blotting. The antibodies used in the study were anti-caveolin-1 (N-20, Santa Cruz Biologicals, # sc-894), anti-EGFR (1005, Santa Cruz, # sc-03), anti-ku70 (A-9, Santa Cruz # sc-5309), anti-Met (C-12, Santa Cruz # sc-10), anti-PARP (H-250, Santa Cruz # sc-7150), anti-phosphotyrosine (P-Tyr-100, Cell Signaling), anti-Pgrmc1 (Novus Biologics) and anti-tubulin (Neomarkers). Some western blots for Pgrmc1 were performed with a polyclonal antibody called anti-PGR-UK1 which was raised in rabbits to an internal 10 amino acid peptide.

[9] = test system: EGFR; test: EGFR immunofluorescence localization in MDA-MB-468 cells; type: cell-based, human; conditions: AG-205-treated cells after 24 hours, 20 μM
Method: To test this model, EGFR was stained by immunofluorescence 24 hours after treatment with 20 μM AG-205 in MDA-MB-468 cells. In cells treated with the vehicle control, EGFR localized to the cell membrane. In contrast, EGFR localized to both the cell membrane and an intracellular ring which corresponds to the perinuclear region of the cell. Also, Pgrmc1 may control the uptake from the membrane to the perinuclear region.
Immunofluorescence for EGFR was performed as described previously (Crudden et al., (2005) Tumour Biol 26:142-6). Cells were grown on chamber slides, washed and fixed with 3.7% formaldehyde. The cells were then permeabilized with 0.1% Triton X-100 in phosphate-buffered saline, blocked with 10% serum and incubated, in turn, with anti-EGFR 1005 and a Texas red-labeled anti-rabbit secondary antibody.

[10] = target: Pgrmc1-heme complex (Homo sapiens, UniProt O00264); test: Spectroscopic scan of purified Pgrmc1 with AG-205; type: binding; conditions: AG-205 added to purified Pgrmc1, spectroscopic scan
Method: (A) Pgrmc1 (SEQ ID NO: 7) shares homology with AtMAPR2 (SEQ ID NO: 8) (underlined residues), which was the target for a screen for small molecule ligands. The putative heme-binding Tyr106 and Tyr112 are indicated with black boxes. (B) The molecular structure of AG-205 includes multiple aromatic components. (C) Spectroscopic scan of Pgrmc1 with vehicle control compared with vehicle plus 50 µM AG-205. The decrease in relative absorbance at 400 nm is consistent with an AG-205-induced change in the spectral properties of Pgrmc1-heme. The scan is representative of four separate scans using different Pgrmc1 protein preparations. The lower scan is a comparison of purified Pgrmc1 without and with the vehicle control (DMSO). Panels D (A549 cells) and E (MDA-MB-231 cells) are viability assays of cells maintained in 0.1% serum (solid line) or 10% serum (dashed line) and treated with increasing doses of AG-205. Percent viability was determined by cell counting, and “% viability” refers to the cell number relative to the untreated control.

[11] = test system: MDA-MB-468 cells; test: Viability / proliferation of MDA-MB-468 cells; type: cell-based, human
Method: as §3
Proliferation, anchorage-independent growth and migration assays. For growth curves, cells were plated in 24 well dishes and grown in 10% serum-containing medium. At various times, the cells were harvested with trypsin and fixed with formaldehyde added to a final concentration of 3.7%. Following the harvest of the final time point, the cells from each time point were counted using a Bright-line hemocytometer (Hausser Scientific).
MTT viability assays were performed as described previously. Briefly, cells were plated in 96-well tissue culture dishes and grown in various media with different drug doses. The cells were then incubated with 0.5 mg/ml of 3-[4,5-dimethylthiazol-2-y]-2,5-diphenyltetrazolium bromide for 1.5 hours, at which time the media was removed, the precipitated crystals were dissolved in dimethyl sulfoxide, and the absorbance at 590 nm was measured using a Bio-Tek μQuant spectrophotometer.

[12] = test system: Met receptor tyrosine kinase; test: Western blot of Met in A549 cells; type: cell-based, human
Method: as §4

Pgrmc1-heme complex, sequence (O00264 whole entry, one chain of several): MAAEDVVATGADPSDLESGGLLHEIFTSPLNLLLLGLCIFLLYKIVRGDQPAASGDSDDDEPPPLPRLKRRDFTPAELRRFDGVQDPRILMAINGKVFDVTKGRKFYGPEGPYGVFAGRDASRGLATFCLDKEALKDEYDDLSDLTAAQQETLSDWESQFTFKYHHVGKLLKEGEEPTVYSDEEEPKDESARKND

Cc1ccc2c(c1)[C@H]1CN(C)CC[C@H]1N2C(=O)CSc1nnnn1-c1ccc(Cl)cc1 [AG-205]
IC50 [1]: 18 µM
IC50 ([2]; H1650, lung, serum-starved, EGFR ΔE746-A750): > 100 µM
sensitivity to growth inhibition ([2]; H1650 cells, ΔE746-A750 EGFR): relatively insensitive
dose with optimal EGFR de-stabilizing activity [3]: 20 to 50 µM
EGFR stability ([3]; increasing doses): de-stabilized EGFR in a dose-dependent manner
growth inhibition [4]: inhibited
IC50 [5]: 8 µM
sensitivity to growth inhibition [6]: relatively insensitive
toxicity to cancer cell lines [7]: toxic to multiple cancer cell lines
cleavage of PARP or caspase 3 [8]: did not detect an increase
EGFR localization [9]: EGFR localized to the perinuclear region of the cell
change in absorbance of purified Pgrmc1 [10]: shift in absorbance at approximately 400 nm
IC50 ([11]; MDA-MB-468, breast, serum-starved, EGFR wild-type, read-out: IC50 values for AG-205, Serum-starved): 12 µM
cell viability ([11]; MDA-MB-468 cells, 20 μM dose, 72-96 hours after treatment): marked loss of viability
viability under normal culture conditions ([11]; MDA-MB-468 cells, ligand abundant (10% serum)): slight increase in viability
cell growth inhibition ([11]; MDA-MB-468 cells, wild-type EGFR): efficiently inhibited cell growth
growth inhibitory activity depending on culture conditions ([11]; low serum versus 10% serum, P=0.0006 for MDA-MB-468 at 20 μM): killing cells grown in low serum conditions but not 10% serum
stability of Met receptor tyrosine kinase [12]: little effect

— US9724337B2, “AG-205 for the treatment of breast cancer” (University of Kentucky Research Foundation, priority 2009, dated 2017)
